Reference: patent publication US9492468B2, “Methods and compositions for treatment of acute heart failure” (PERICOR THERAPEUTICS, INC., priority 2008, dated 2016)

Tests used:
[1] = Urinary excretion of GP531 after oral dosing in rat (relative/absolute bioavailability); assay type: in vivo
Description: Two separate studies were conducted in the rat using the free base and/or the water soluble hydrochloride salt of Formula Va. In the first study, equimolar doses of GP531 (20 mg/kg) were administered orally in aqueous solution to separate groups (n=3) of rats as GP531 tartrate or Formula Va hydrochloride. […] Cmax increased 6-fold and AUC over 0-4 hr increased 4-fold. In a subsequent study, using the same equimolar doses of GP531 tartrate and prodrug, the relative bioavailability of GP531 was estimated in a group of rats (n=4) by comparison of the amount of GP531 excreted in urine after dosing.

[2] = Octanol:water partition coefficient; assay type: physicochemical; conditions: read-out: Octanol: water partition coefficient (log P)
Excerpt: Administering a better absorbed more lipophilic prodrug, which is subsequently hydrolysed to GP531, achieves an increase in the systemic availability of GP531.

GP531 bioavailability, free base vs hydrochloride salt of the prodrug [1]: no significant difference
logP [2]: 3.31
Structure (SMILES): CC(C)(C)C(=O)O[C@@H]1[C@H](OC(=O)C(C)(C)C)[C@@H](CNCc2ccccc2)O[C@H]1n1cnc(C(N)=O)c1N [Formula Va]
